Measured values from patent US11155558B2, “Dual mode of action soluble guanylate cyclase activators and phosphodiesterase inhibitors and uses thereof” (TOPADUR PHARMA AG, priority 2017, dated 2021).
Read-outs that look alike come from different tables or passages of the source.

What was measured:
[1] = target: recombinant human (rh) PDE5A (Homo sapiens (Human), UniProt O76074); test: Phosphodiesterase-5 activity assay (Example 110), radiometric SPA; assay type: biochemical
Experimental: The inhibition of recombinant human (rh) PDE5A by test compounds is measured in a radiometric assay based on Scintillation Proximity Assay (SPA) technology. The substrate [3H]cGMP/cGMP is hydrolysed to [3H] 5′ GMP/5′ GMP contingent on the activity of rhPDE5A. The ensuing [3H] 5′ GMP/5′ GMP but not [3H] cGMP/cGMP binds to SPA yttrium silicate beads in the presence of Zn^++ stimulating the scintillant within the bead to emit light that is detected by a ß-counter. The assay is performed in a 96 well format.
The assay is done in 20 mM Tris HCl pH 7.4, 5 mM MgCl2, […] cGMP/[3H] cGMP (about 60000 dpm/well) substrate with rhPDE5A1 (GST tagged, SIGMA E9034) added to an amount not exceeding 20% cGMP hydrolysis within 20 min in Tris 20 mM pH 7.4 supplemented with 0.01% bovine serum albumin (BSA) in the presence of test compounds or vehicle (0.1% DMSO). The final assay volume amounts to 100 μl and the reaction is run for 20 min at 37° C.
The hydrolysis of [3H] cGMP/cGMP by rhPDE5A is terminated by adding SPA beads at 50 µl/well (Perkin Elmer, RPNQ0024), pre-diluted in water as per manufacturer's instructions and supplemented with 3-isobutyl-1-methylxanthine (1 mM). Beads are allowed to sediment for at least 30 min before measurement in a Wallac Microbeta 2 (Perkin Elmer).
In general, test compounds are added at seven different concentrations from […] in log steps. […] Results (IC50) are given as the mean from at least two independent experiments each performed in triplicate.

[2] = target: PDE5 enzyme isolated from human platelets (Homo sapiens (Human), UniProt O76074); test: PDE5 assay (Example 109), formation of 5′GMP from cGMP, SPA;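 further: tritiated 5′GMP counted by scintillation after SPA bead capture, enzyme reaction run 60 min at 22 °C, basal control is the mixture without enzyme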
Experimental: Evaluation of the effects of compounds of the present invention on the activity of the human phosphodiesterase-5 quantified by measuring the formation of 5′GMP from cGMP using PDE5 enzyme isolated from human platelets.
Thereafter, the reaction is initiated by addition of the enzyme and the mixture is incubated for 60 min at 22° C.
For basal control measurements, the enzyme is omitted from the reaction mixture. Following incubation SPA beads are added. After 20 min at 22° C. under shaking, the amount of [3H]5′GMP is quantified with a scintillation counter (Topcount, Packard).
The standard inhibitory reference compound is dipyridamole, which is tested in each experiment at several concentrations to obtain an inhibition curve from which its IC50 value is calculated.

[3] = Measurements of human plasma protein binding; assay type: in vitro ADME
Experimental: An aliquot of 200 μL of human plasma containing test compound was spiked into donor well (red chamber) of the insert. 350 μL of PBS was spiked into receiver well (white chamber) of the insert.
The samples were matrix equilibrated with opposite matrix (25 μL of plasma/buffer sample was matched with 25 μL of blank buffer/plasma). Matrix matched samples were precipitated with 200 μL of acetonitrile containing internal standard. Samples were vortexed at 1000 rpm for 5 min and centrifuged at 4000 rpm for 10 min. Supernatant was separated, diluted 2 fold with water and analysed in LC-MS/MS. TO control samples were processed immediately after the preparation of plasma working stock solutions. These samples serves as a measure for calculating the percentage recovery of test compounds.

| SMILES | IC50 [1] [nM] | other results |
| --- | --- | --- |
| CCCOc1ccc(S(=O)(=O)N2CCC([C@H](CO[N+](=O)[O-])O[N+](=O)[O-])CC2)cc1-c1nc2c(CCC)cn(CC)c2c(=O)[nH]1 [Compound 1k, (R)-1-(1-((3-(5-ethyl-4-oxo-7-propyl-4,5-dihydro-3H-pyrrolo[3,2-d]pyrimidin-2-yl)-4-propoxyphenyl)sulfonyl)piperidin-4-yl)ethane-1,2-diyl dinitrate] | 3.5 | – |
| CCCOc1ccc(S(=O)(=O)N2CCC([C@@H](CO[N+](=O)[O-])O[N+](=O)[O-])CC2)cc1-c1nc2c(CCC)cn(CC)c2c(=O)[nH]1 [Compound 1l, (S)-1-(1-((3-(5-ethyl-4-oxo-7-propyl-4,5-dihydro-3H-pyrrolo[3,2-d]pyrimidin-2-yl)-4-propoxyphenyl)sulfonyl)piperidin-4-yl)ethane-1,2-diyl dinitrate] | 3.2 | – |
| CCCOc1ccc(S(=O)(=O)N2C[C@@H](CCO[N+](=O)[O-])N(C)[C@@H](CCO[N+](=O)[O-])C2)cc1-c1nc2c(CCC)cn(CC)c2c(=O)[nH]1 [Compound 1m, ((2S,6R)-4-((3-(5-ethyl-4-oxo-7-propyl-4,5-dihydro-3H-pyrrolo[3,2-d]pyrimidin-2-yl)-4-propoxyphenyl)sulfonyl)-1-methylpiperazine-2,6-diyl)bis(ethane-2,1-diyl) dinitrate] | 8.6 | – |
| CCCOc1ccc(S(=O)(=O)N2CCC(CCO[N+](=O)[O-])(CCO[N+](=O)[O-])CC2)cc1-c1nc2c(CCC)cn(CC)c2c(=O)[nH]1 [Compound 1n, (1-((3-(5-ethyl-4-oxo-7-propyl-4,5-dihydro-3H-pyrrolo[3,2-d]pyrimidin-2-yl)-4-propoxyphenyl)sulfonyl)piperidine-4,4-diyl)bis(ethane-2,1-diyl) dinitrate] | 2.7 | – |
| CCCOc1ccc(S(=O)(=O)N2C[C@H](CCO[N+](=O)[O-])N(C)[C@@H](CCO[N+](=O)[O-])C2)cc1-c1nc2c(CCC)cn(CC)c2c(=O)[nH]1 [Compound 1o, ((2S,6S)-4-((3-(5-ethyl-4-oxo-7-propyl-4,5-dihydro-3H-pyrrolo[3,2-d]pyrimidin-2-yl)-4-propoxyphenyl)sulfonyl)-1-methylpiperazine-2,6-diyl)bis(ethane-2,1-diyl) dinitrate] | 7.1 | – |
| CCCc1c(/C=N/O)n(C)c2c(=O)[nH]c(-c3cc(S(=O)(=O)N4CCN(CCO[N+](=O)[O-])CC4)ccc3OCC)nc12 [Compound 2g, (E)-2-(4-((4-ethoxy-3-(6-((hydroxyimino)methyl)-5-methyl-4-oxo-7-propyl-4,5-dihydro-3H-pyrrolo[3,2-d]pyrimidin-2-yl)phenyl)sulfonyl)piperazin-1-yl)ethyl nitrate] | 31 | – |
| CCCOc1ccc(S(=O)(=O)N2CCN(CCCO[N+](=O)[O-])CC2)cc1-c1nc2c(CCC)cn(C)c2c(=O)[nH]1 [Compound 3d, 3-(4-((3-(5-methyl-4-oxo-7-propyl-4,5-dihydro-3H-pyrrolo[3,2-d]pyrimidin-2-yl)-4-propoxyphenyl)sulfonyl)piperazin-1-yl)propyl nitrate] | 9 | – |
| CCCOc1ccc(S(=O)(=O)N2CCN(CCO[N+](=O)[O-])CC2)cc1-c1nc2c(CCC)c(/C=N/O)n(C)c2c(=O)[nH]1 [Compound 3e, (E)-2-(4-((3-(6-((hydroxyimino)methyl)-5-methyl-4-oxo-7-propyl-4,5-dihydro-3H-pyrrolo[3,2-d]pyrimidin-2-yl)-4-propoxyphenyl)sulfonyl)piperazin-1-yl)ethyl nitrate] | 12 | – |
| CCCOc1ccc(S(=O)(=O)N2CCN(CCCO[N+](=O)[O-])CC2)cc1-c1nc2c(CCC)c(/C=N/O)n(C)c2c(=O)[nH]1 [Compound 3f, (E)-3-(4-((3-(6-((hydroxyimino)methyl)-5-methyl-4-oxo-7-propyl-4,5-dihydro-3H-pyrrolo[3,2-d]pyrimidin-2-yl)-4-propoxyphenyl)sulfonyl)piperazin-1-yl)propyl nitrate] | 42 | – |
| CCCOc1ccc(S(=O)(=O)N2CCC([C@H](CO[N+](=O)[O-])O[N+](=O)[O-])CC2)cc1-c1nc2c(CCC)cn(C)c2c(=O)[nH]1 [Compound 3g, (R)-1-(1-((3-(5-methyl-4-oxo-7-propyl-4,5-dihydro-3H-pyrrolo[3,2-d]pyrimidin-2-yl)-4-propoxyphenyl)sulfonyl)piperidin-4-yl)ethane-1,2-diyl dinitrate] | 23 | – |
| CCCOc1ccc(S(=O)(=O)N2CCC([C@@H](CO[N+](=O)[O-])O[N+](=O)[O-])CC2)cc1-c1nc2c(CCC)cn(C)c2c(=O)[nH]1 [Compound 3h, (S)-1-(1-((3-(5-methyl-4-oxo-7-propyl-4,5-dihydro-3H-pyrrolo[3,2-d]pyrimidin-2-yl)-4-propoxyphenyl)sulfonyl)piperidin-4-yl)ethane-1,2-diyl dinitrate] | 3.7 | – |
| CCCOc1ccc(S(=O)(=O)N2CCC(CO[N+](=O)[O-])(CO[N+](=O)[O-])CC2)cc1-c1nc2c(CCC)cn(C)c2c(=O)[nH]1 [Compound 3i, (1-((3-(5-methyl-4-oxo-7-propyl-4,5-dihydro-3H-pyrrolo[3,2-d]pyrimidin-2-yl)-4-propoxyphenyl)sulfonyl)piperidine-4,4-diyl)bis(methylene) dinitrate] | 14 | – |
| CCCOc1ccc(S(=O)(=O)N2CCC(CO[N+](=O)[O-])CC2)cc1-c1nc2c(CCC)cn(C)c2c(=O)[nH]1 [Compound 3k, (1-((3-(5-methyl-4-oxo-7-propyl-4,5-dihydro-3H-pyrrolo[3,2-d]pyrimidin-2-yl)-4-propoxyphenyl)sulfonyl)piperidin-4-yl)methyl nitrate] | 15 | – |
| CCCOc1ccc(S(=O)(=O)N2CCC([C@@H](O)CO[N+](=O)[O-])CC2)cc1-c1nc2c(CCC)cn(C)c2c(=O)[nH]1 [Compound 3l, (R)-2-hydroxy-2-(1-((3-(5-methyl-4-oxo-7-propyl-4,5-dihydro-3H-pyrrolo[3,2-d]pyrimidin-2-yl)-4-propoxyphenyl)sulfonyl)piperidin-4-yl)ethyl nitrate] | 2 | – |
| CCCOc1ccc(S(=O)(=O)N2CCC([C@H](CO[N+](=O)[O-])O[N+](=O)[O-])CC2)cc1-c1nc2c(CCC)c(/C=N/O)n(C)c2c(=O)[nH]1 [Compound 3o, (R,E)-1-(1-((3-(6-((hydroxyimino)methyl)-5-methyl-4-oxo-7-propyl-4,5-dihydro-3H-pyrrolo[3,2-d]pyrimidin-2-yl)-4-propoxyphenyl)sulfonyl)piperidin-4-yl)ethane-1,2-diyl dinitrate] | 13 | – |
| CCCOc1ccc(S(=O)(=O)N2CCC([C@@H](CO[N+](=O)[O-])O[N+](=O)[O-])CC2)cc1-c1nc2c(CCC)c(/C=N/O)n(C)c2c(=O)[nH]1 [Compound 3p, (S,E)-1-(1-((3-(6-((hydroxyimino)methyl)-5-methyl-4-oxo-7-propyl-4,5-dihydro-3H-pyrrolo[3,2-d]pyrimidin-2-yl)-4-propoxyphenyl)sulfonyl)piperidin-4-yl)ethane-1,2-diyl dinitrate] | 12 | – |
| CCCOc1ccc(S(=O)(=O)N2CCC([C@@H](O)CO[N+](=O)[O-])CC2)cc1-c1nc2c(CCC)c(/C=N/O)n(C)c2c(=O)[nH]1 [Compound 3q, (R,E)-2-hydroxy-2-(1-((3-(6-((hydroxyimino)methyl)-5-methyl-4-oxo-7-propyl-4,5-dihydro-3H-pyrrolo[3,2-d]pyrimidin-2-yl)-4-propoxyphenyl)sulfonyl)piperidin-4-yl)ethyl nitrate] | – | IC50 ([1]; asterisk: assay described in Example 110, rhPDE5A1, read-out: IC50): 3.3 nM |
| CCCOc1ccc(S(=O)(=O)N2CCN(CCO)CC2)cc1-c1nc2c(CCC)cn(CC)c2c(=O)[nH]1 [mirodenafil, 5-ethyl-2-(5-((4-(2-hydroxyethyl)piperazin-1-yl)sulfonyl)-2-propoxyphenyl)-7-propyl-3,5-dihydro-4H-pyrrolo[3,2-d]pyrimidin-4-one, reference compound] | – | IC50 [2]: 0.34 nM; % inhibition at 5.0E−09 M ([2]; percent inhibition of control enzyme activity at 5.0E−09 M, assay of Example 109): 64.9%; % Bound in Plasma [3]: 98.94%; fraction unbound [3]: 0.0106; recovery ([3]; human): 99.2% |
